# From patent US5753614A, “Nisin compositions for use as enhanced, broad range bactericides” (AMBI Inc., priority 1995, dated 1998)
# Experiments:
# [1] = system: Listeria monocytogenes; test: Bactericidal activity towards Listeria monocytogenes in Tris buffer; assay type: cell-based; conditions: L. monocytogenes
# Description: (§1) All tests in the following examples were performed at 37° C. The efficacy of the enhanced broad range bactericides was determined by assaying bactericidal activity as measured by the percent bacterial survival after treatment with the bactericide. Generally, after incubation of a 10^7 cell per ml suspension of target species with the novel bactericide for specified lengths of time, bacteria were collected by centrifugation for 2 minutes. The bacterial pellet was washed free of the bactericide with a rescue buffer, termed herein Phage buffer (50 mM Tris-HCl buffer pH 7.8, 1 mM MgSO4, 4 mM CaCl2, 0.1M Nacl, and 0.1% gelatin), resuspended and serially diluted into Phage buffer, and 100 μl of the suspended bacteria were spread on nutrient agar plates. Surviving bacteria were determined by scoring colony forming units (CFU) after incubation for 24-48 hours at 37° C.
# (§2) Incubations were performed in 20 mM TrisHCl, pH 8.0 at 37° C.
# [2] = system: Coryneform bacteria; test: Bactericidal activity towards Coryneform bacteria; assay type: cell-based, mixed population of axillary Coryneform bacteria
# Description: as §1, §2
# [3] = system: E. coli; test: Bactericidal activity, percent survival of E. coli at 2 hours; assay type: cell-based, Escherichia coli; conditions: for Percentage E. coli Survival at 2 hours: Tris pH 8.0
# Description: as §1
# The effects of the bactericide were measured as a function of percentage bacteria survival after 2 hours.
# [4] = system: S. typhimurium; test: Bactericidal activity, percent survival of S. typhimurium suspension; assay type: cell-based, Salmonella typhimurium; conditions: for % Survival at 2 hours: S. typhimurium
# Description: as §1
# The control (Test #1) is identical to the control of Example 1 (Table 1).
# [5] = system: K. pneumoniae; test: Bactericidal activity, percent survival of K. pneumoniae; assay type: cell-based, Klebsiella pneumoniae
# Description: as §1
# The effect was measured as a function of percentage bacterial survival after 2 hours.
# [6] = system: Streptococcus agalactiae; test: Bactericidal activity towards Streptococcus agalactiae in milk; assay type: cell-based; conditions: S. agalactiae in milk
# Description: as §1
# However, the combination of the two agents, 0.1% monolaurin and nisin 0.2 μg/ml, is extremely potent towards S. agalactiae. […] Thus, when the application of nisin is limited by its available activity, a bactericide comprising nisin with a surfactant can be expected to be more useful.
# (§3) Incubations were in milk at 37° C.
# [7] = system: S. typhimurium on chicken muscle; test: Bactericidal activity towards S. typhimurium on chicken muscle (unadhered cells); assay type: cell-based, Salmonella typhimurium
# Description: Incubations were performed in either 50 mM sodium acetate, pH 5.0, or 20 mM Tris, pH 8.0 at 37° C.
# Cubes of chicken muscle were cleansed with sodium hypochlorite and povidone iodine prior to use. To inoculate the tissue, the cubes of chicken muscle were dipped into a 10^8 cells/ml suspension of S. typhimurium in 20 mM Tris HCl, pH 8.0. Excess moisture was removed from dipped cubes by tapping. The chicken samples were placed into sufficient buffer containing the nisin composition to cover the tissue and incubated for 2 hours at 37° C. after which the tissue was removed to sufficient Phage buffer to cover the tissue. The bacteria remaining in the test solution were collected by centrifugation, washed with Phage buffer, and combined with bacteria washed from the tissue by Phage buffer. The combined samples (termed "unadhered" cells) were serially diluted and 100 μl aliquots were plated for determination of surviving bacteria.
# (§4) Cubes of chicken muscle were cleansed with sodium hypochlorite and povidone iodine prior to use. To inoculate the tissue, the cubes of chicken muscle were dipped into a 10^8 cells/ml suspension of S. typhimurium in 20 mM Tris HCl, pH 8.0. Excess moisture was removed from dipped cubes by tapping. The tissue was placed into sufficient buffer containing the nisin compositions to cover the tissue, and incubated for 2 hours at 37° C. after which the tissue was removed to sufficient Phage buffer to cover the tissue. The bacteria remaining in the test solution were collected by centrifugation, washed with Phage buffer, and combined with bacteria washed from the tissue by Phage buffer. The combined samples (termed "unadhered" cells) were serially diluted and 100 μl aliquots were plated for determination of surviving bacteria.
# as §4, with “cleaned” for “cleansed”, “50” for “20”, “sodium acetate buffer,” for “Tris HCl,”, “5.0.” for “8.0.”, “containing” for “containing the”
# [8] = system: Staphylococcus aureus; test: Bactericidal activity towards Staphylococcus aureus, influence of pH and EDTA; assay type: cell-based; conditions: S. aureus
# Description: as §1
# Incubations were performed in 50 mM sodium acetate buffer, pH 5.0 or 20 m
# TrisHCl buffer, pH 8.0 at 37° C.
# [9] = system: Listeria monocytogenes; test: Bactericidal activity towards Listeria monocytogenes in milk; assay type: cell-based; conditions: for % Survival 2 hr: L. monocytogenes in milk
# Description: as §1
# An example of where the application of nisin is limited by its available activity is illustrated by the data in Table 15B.
# as §3
# [10] = system: Streptococcus mutans; test: Bactericidal activity towards Streptococcus mutans at 2 hr; assay type: cell-based; conditions: S. mutans; nisin 0.1 μg/ml, EDTA 0; 20 mM TrisHCl pH 8.0
# Description: as §1, §2
# [11] = system: Streptococcus mutans; test: Kinetics of bactericidal activity towards Streptococcus mutans; assay type: cell-based; conditions: S. mutans, nisin 0 with 1.0 mM EDTA, pH 7.3
# Description: The suspensions were incubated for various times ranging from 0.5 to 60 minutes with the bactericides. The bactericidal efficacy of the bactericides was estimated by determining the percent survival of bacteria.
# Incubations were performed in 20 mM TrisHCl, pH 7.3 at 37° C.
# [12] = system: Escherichia coli; test: Rapid bactericidal activity towards Escherichia coli (1 min); assay type: cell-based; conditions: E. coli; EDTA 1.0 mM, nisin 0; 20 mM Tris pH 7.0
# Description: as §1
# Incubations were performed in 20 mM Tris, pH 7.0 at 37° C.
# [13] = nisin 3.0 μg/ml, EDTA 0, pH 8.0
compound,measurement,setting,value
Nisin,% Survival after 2 hr,[1]; [13],0.71%
same,% Survival 2 hr,"[2]; nisin 3 ug/ml, EDTA 0, pH 8.0",0.22%
same,Percentage E. coli Survival at 2 hours,"[3]; nisin 100 μg/ml, EDTA 0, Triton X-100 0",25%
same,Percentage E. coli Survival at 2 hours,"[3]; nisin 300 μg/ml, EDTA 0, Triton X-100 0",8.5%
same,% Survival at 2 hours,"[4]; nisin 10 ug/ml, EDTA 0, BSA 0 (Table 8)",51.3%
same,% Survival at 2 hours,"[4]; nisin 100 ug/ml, EDTA 0, BSA 0 (Table 8)",1.6%
same,% Survival at 2 hours,"[4]; nisin 100 μg/ml, EDTA 0, pH 5.0",0.6%
same,% Survival at 2 hours,"[4]; nisin 100 μg/ml, EDTA 0, pH 8.0 (Table 6)",4%
same,Percentage S. typhimurium Survival at 3 hours,"[4]; nisin 50 μg/ml, EDTA 0, 20 mM Tris pH 8.0",7.0%
same,Percentage S. typhimurium Survival at 3 hours,"[4]; nisin 100 μg/ml, EDTA 0, 20 mM Tris pH 8.0",1.6%
same,% Survival at 2 hours,"[5]; nisin 100 μg/ml, EDTA 0, 20 mM Tris pH 8.0, 37°C",50%
same,% Survival at 2 hours,"[5]; nisin 300 μg/ml, EDTA 0, Tris pH 8.0",38%
same,% survival at 2 h,"[6]; nisin 0.02 μg/ml, monolaurin 0",100%
same,% survival at 2 h,"[6]; nisin 0.2 μg/ml, monolaurin 0",2.2%
same,% Survival at 2 hours (Unadhered cells),"[7]; nisin 300 ug/ml, 1% BSA, EDTA 0, pH 8.0",0.02%
same,% Survival at 2 hours (Unadhered cells),"[7]; nisin 300 ug/ml, EDTA 0, pH 5.0",0.1%
same,% Survival at 2 hours (Unadhered cells),"[7]; nisin 300 ug/ml, EDTA 0, pH 8.0",7.5%
same,% Survival 2 hr,"[8]; nisin 3.0 μg/ml, EDTA 0, pH 5.0",0.6%
same,% Survival 2 hr,[8]; [13],7.4%
same,% Survival 2 hr,"[9]; nisin 100 μg/ml, monooleate 0",0.56%
same,% Survival after 2 hr,[10],4.3%
O=C([O-])CN(CCN(CC(=O)[O-])CC(=O)O)CC(=O)O.[Na+].[Na+] [EDTA],% Survival,[11]; 3 min,100%
same,% Survival,[11]; 60 min,100%
same,% survival at 1 min,[12],100%
same,% Survival after 2 hr,"[1]; EDTA 1.0 mM, nisin 0, 20 mM TrisHCl pH 8.0",84%
same,% Survival 2 hr,"[2]; EDTA 0.3 mM, nisin 0, 20 mM TrisHCl pH 8.0",4.6%
same,% Survival 2 hr,"[2]; EDTA 1.0 mM, nisin 0, pH 8.0",3.6%
same,% Survival 2 hr,"[2]; EDTA 3.0 mM, nisin 0, pH 8.0",8%
same,% Survival 2 hr,"[2]; EDTA 10 mM, nisin 0, pH 8.0",36%
same,Percentage E. coli Survival at 2 hours,"[3]; EDTA 20 mM, nisin 0",14.5%
same,Percentage S. typhimurium Survival at 3 hours,"[4]; EDTA 20 mM, nisin 0, 20 mM Tris pH 8.0",2.5%
same,% Survival at 2 hours,"[4]; EDTA 1.0 mM, BSA 1.0%, nisin 0, 20 mM Tris pH 8.0",63%
same,% Survival at 2 hours,"[4]; EDTA 2.0 mM, nisin 0, 20 mM Tris pH 8.0",8.7%
same,% Survival at 2 hours,"[4]; EDTA 2.0 mM, nisin 0, 50 mM sodium acetate pH 5.0",38.7%
same,% Survival at 2 hours,"[4]; EDTA 10 mM, nisin 0, pH 5.0",15.2%
same,% Survival at 2 hours,"[4]; EDTA 10 mM, nisin 0, pH 8.0",14%
same,% Survival at 2 hours,"[4]; EDTA 50 mM, nisin 0, pH 5.0",3.5%
same,% Survival at 2 hours,"[4]; EDTA 50 mM, nisin 0, pH 8.0",11.4%
same,% Survival at 2 hours,"[4]; EDTA 100 mM, nisin 0, pH 8.0",45%
same,% Survival at 2 hours,"[5]; EDTA 20 mM, nisin 0, Tris pH 8.0",22%
same,% Survival at 2 hours,"[7]; EDTA 1.0 mM, BSA 1.0%, nisin 0, pH 8.0",27%
same,% Survival at 2 hours (Unadhered cells),"[7]; EDTA 10 mM, nisin 0, methyl paraben 0, 50 mM Na acetate pH 5.0 (Table 10)",11.8%
same,% Survival at 2 hours (Unadhered cells),"[7]; EDTA 10 mM, nisin 0, pH 5.0 (Table 7)",6.4%
same,% Survival at 2 hours (Unadhered cells),"[7]; EDTA 10 mM, nisin 0, pH 8.0",5.2%
same,% Survival 2 hr,"[8]; EDTA 0.3 mM, nisin 0, pH 8.0",100%
same,% Survival 2 hr,"[8]; EDTA 1.0 mM, nisin 0, pH 8.0",81%
same,% Survival 2 hr,"[8]; EDTA 3.0 mM, nisin 0, pH 5.0",100%
same,% Survival 2 hr,"[8]; EDTA 3.0 mM, nisin 0, pH 8.0",100%
same,% Survival 2 hr,"[8]; EDTA 10 mM, nisin 0, pH 8.0",100%
same,% Survival 2 hr,"[8]; EDTA 30 mM, nisin 0, pH 8.0",100%
Triton X-100,Percentage E. coli Survival at 2 hours,"[3]; Triton X-100 1.0%, nisin 0, EDTA 0",100%
same,bactericidal activity towards E. coli (in words),"[3]; Triton X-100 1.0%, tests #3 and #4",no significant bactericidal activity
same,Percentage S. typhimurium Survival at 3 hours,"[4]; Triton X-100 1.0%, nisin 0, EDTA 0, Tris pH 8.0",37.4%
"CCCCCCCCCCCC(=O)OCC(O)CO (stereo not shown) [Monolaurin, monolaurin]",% survival at 2 h,"[6]; monolaurin 0.01%, nisin 0",100%
same,% survival at 2 h,"[6]; monolaurin 0.1%, nisin 0",4.5%
monooleate,% Survival 2 hr,"[9]; monooleate 0.1%, nisin 0",67%
same,% Survival 2 hr,"[9]; monooleate 1.0%, nisin 0",63%
same,bactericidal activity towards L. monocytogenes (in words),"[9]; monooleate by itself, in milk",no bactericidal activity
